In patent US8247211B2, “Glycopeptide antibiotics” (American Cyanamid Company, priority 2001, dated 2012):
Converted amounts (≈) assume the structure as drawn.

Columns and labels:
Test in all cases: In vitro antibacterial evaluation: minimum inhibitory concentration (MIC), broth dilution method
Format in all cases: cell-based
Enterococcus sp. = conditions: broth dilution, 18 hours at 35° C.
Outline: (§1)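 An MIC is reported for each organism as the least concentration giving inhibition, using broth dilution over 64-0.06 μg/mL with a 5×10^5 CFU/mL inoculum.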

Staphylococcus sp. = conditions: strain SMITH GC 4543; broth dilution, 18 hours at 35° C.
Outline: as §1

Streptococcus sp. = conditions: broth dilution, 18 hours at 35° C.
Outline: as §1

Escherichia coli = conditions: broth dilution, 18 hours at 35° C.
[1] = Enterococcus faecalis (ATCC 29212)
[2] = Enterococcus faecalis (GC 2242)
[3] = Enterococcus faecalis (GC 2691)
[4] = Enterococcus faecalis (GC 3059)
[5] = Enterococcus faecalis (GC 4552)
[6] = Enterococcus faecalis (GC 4553)
[7] = Enterococcus faecalis (GC 4554)
[8] = Enterococcus faecalis (GC 6189)
[9] = Streptococcus agalactiae (GC 4564)
[10] = Streptococcus pneumoniae (ATCC 6301)
[11] = Streptococcus pneumoniae (GC 1894)
[12] = Streptococcus pneumoniae (GC 4565)
[13] = Streptococcus pyogenes (GC 4563)

SMILES	MIC Enterococcus avium (GC 4558) (Enterococcus sp.; Enterococcus avium (GC 4558)) [µg/mL]	MIC Enterococcus faecalis (ATCC 29212) (Enterococcus sp.; [1]) [µg/mL]	MIC Enterococcus faecalis (GC 2242) (Enterococcus sp.; [2]) [µg/mL]	MIC Enterococcus faecalis (GC 2691) (Enterococcus sp.; [3]) [µg/mL]	MIC Enterococcus faecalis (GC 3059) (Enterococcus sp.; [4]) [µg/mL]	MIC Enterococcus faecalis (GC 4552) (Enterococcus sp.; [5]) [µg/mL]	MIC Enterococcus faecalis (GC 4553) (Enterococcus sp.; [6]) [µg/mL]	MIC Enterococcus faecalis (GC 4554) (Enterococcus sp.; [7]) [µg/mL]	MIC Enterococcus faecalis (GC 6189) (Enterococcus sp.; [8]) [µg/mL]	MIC Enterococcus faecium (GC 2243) (Enterococcus sp.; Enterococcus faecium (GC 2243)) [µg/mL]	MIC Enterococcus faecium (GC 4556) (Enterococcus sp.; Enterococcus faecium (GC 4556)) [µg/mL]	MIC Enterococcus faecium (GC 4557) (Enterococcus sp.; Enterococcus faecium (GC 4557)) [µg/mL]	MIC Enterococcus avium (GC 4558) (Enterococcus sp.) [µg/mL]	MIC Enterococcus faecalis (ATCC 29212) (Enterococcus sp.) [µg/mL]	MIC Enterococcus faecalis (GC 2242) (Enterococcus sp.) [µg/mL]	MIC Enterococcus faecalis (GC 2691) (Enterococcus sp.) [µg/mL]	MIC Enterococcus faecalis (GC 3059) (Enterococcus sp.) [µg/mL]	MIC Enterococcus faecalis (GC 4552) (Enterococcus sp.) [µg/mL]	MIC Enterococcus faecalis (GC 4553) (Enterococcus sp.) [µg/mL]	MIC Enterococcus faecalis (GC 4554) (Enterococcus sp.) [µg/mL]	other results
CC(c1ccccc1)C1NC(=O)CNC(=O)C(CO)NC(=O)C(C(O)C2CNC(=N)N2C2OC(CO)C(O)C(O)C2O)NC(=O)C(C(O)C2CNC(=N)N2)NC(=O)C(Cc2ccc(O)c(NC(=S)Nc3cc(C(F)(F)F)cc(C(F)(F)F)c3)c2)NC1=O (stereo not drawn) [Example 24, Cyclo[glycyl-β-methylphenylalanyl-3-[[[3,5-bis(trifluoromethyl)phenyl]carbamothioyl]amino]-tyrosyl-3-(2-iminoimidazolidin-4-yl)seryl-3-(3-hexopyranosyl-2-iminoimidazolidin-4-yl)-serylseryl]]	64 (≈ 50.9 µM)	64 (≈ 50.9 µM)	64 (≈ 50.9 µM)	>64	>64	>64	32 (≈ 25.5 µM)	>64	>64	64 (≈ 50.9 µM)	64 (≈ 50.9 µM)	32 (≈ 25.5 µM)	64 (≈ 50.9 µM)	64 (≈ 50.9 µM)	64 (≈ 50.9 µM)	>64	>64	>64	32 (≈ 25.5 µM)	>64	MIC Enterococcus faecalis (GC 6189) (Enterococcus sp.): >64 µg/mL; MIC Enterococcus faecium (GC 2243) (Enterococcus sp.): 64 µg/mL (≈ 50.9 µM); MIC Enterococcus faecium (GC 4556) (Enterococcus sp.): 64 µg/mL (≈ 50.9 µM); MIC Enterococcus faecium (GC 4557) (Enterococcus sp.): 32 µg/mL (≈ 25.5 µM); MIC Staphylococcus aureus-SMITH (GC 4543) (Staphylococcus sp.): >64 µg/mL; MIC Streptococcus agalactiae (GC 4564) (Streptococcus sp.; [9]): >64 µg/mL; MIC Streptococcus pneumoniae (ATCC 6301) (Streptococcus sp.; [10]): >64 µg/mL; MIC Streptococcus pneumoniae (GC 1894) (Streptococcus sp.; [11]): 64 µg/mL (≈ 50.9 µM); MIC Streptococcus pneumoniae (GC 4565) (Streptococcus sp.; [12]): >64 µg/mL; MIC Streptococcus pyogenes (GC 4563) (Streptococcus sp.; [13]): 64 µg/mL (≈ 50.9 µM); MIC Streptococcus agalactiae (GC 4564) (Streptococcus sp.): >64 µg/mL; MIC Streptococcus pneumoniae (ATCC 6301) (Streptococcus sp.): >64 µg/mL; MIC Streptococcus pneumoniae (GC 1894) (Streptococcus sp.): 64 µg/mL (≈ 50.9 µM); MIC Streptococcus pneumoniae (GC 4565) (Streptococcus sp.): >64 µg/mL; MIC Streptococcus pyogenes (GC 4563) (Streptococcus sp.): 64 µg/mL (≈ 50.9 µM); MIC Escherichia coli (ATCC 25922) (Escherichia coli): >64 µg/mL; MIC Escherichia coli (GC 4559) (Escherichia coli): >64 µg/mL; MIC Escherichia coli (GC 4560) (Escherichia coli): 32 µg/mL (≈ 25.5 µM)
CC(c1ccccc1)C1NC(=O)CNC(=O)C(CO)NC(=O)C(C(O)C2CNC(=N)N2C2OC(CO)C(O)C(O)C2O)NC(=O)C(C(O)C2CNC(=N)N2)NC(=O)C(Cc2ccc3oc(-c4cccc([N+](=O)[O-])c4)nc3c2)NC1=O (stereo not drawn) [Example 26, Cyclo[3-[2-(3-nitrophenyl)-1,3-benzoxazol-5-yl)alanyl-3-(2-iminoimidazolidin-4-yl)seryl-3-(3-hexopyranosyl-2-iminoimidazolidin-4-yl)serylserylglycyl-β-methylphenylalanyl]]	32 (≈ 28.6 µM)	32 (≈ 28.6 µM)	64 (≈ 57.3 µM)	32 (≈ 28.6 µM)	64 (≈ 57.3 µM)	64 (≈ 57.3 µM)	32 (≈ 28.6 µM)	64 (≈ 57.3 µM)	32 (≈ 28.6 µM)	32 (≈ 28.6 µM)	64 (≈ 57.3 µM)	8 (≈ 7.16 µM)	32 (≈ 28.6 µM)	32 (≈ 28.6 µM)	64 (≈ 57.3 µM)	32 (≈ 28.6 µM)	64 (≈ 57.3 µM)	64 (≈ 57.3 µM)	32 (≈ 28.6 µM)	64 (≈ 57.3 µM)	MIC Enterococcus faecalis (GC 6189) (Enterococcus sp.): 32 µg/mL (≈ 28.6 µM); MIC Enterococcus faecium (GC 2243) (Enterococcus sp.): 32 µg/mL (≈ 28.6 µM); MIC Enterococcus faecium (GC 4556) (Enterococcus sp.): 64 µg/mL (≈ 57.3 µM); MIC Enterococcus faecium (GC 4557) (Enterococcus sp.): 8 µg/mL (≈ 7.16 µM); MIC Staphylococcus aureus-SMITH (GC 4543) (Staphylococcus sp.): 16 µg/mL (≈ 14.3 µM); MIC Streptococcus agalactiae (GC 4564) (Streptococcus sp.; [9]): 16 µg/mL (≈ 14.3 µM); MIC Streptococcus pneumoniae (ATCC 6301) (Streptococcus sp.; [10]): 32 µg/mL (≈ 28.6 µM); MIC Streptococcus pneumoniae (GC 1894) (Streptococcus sp.; [11]): 16 µg/mL (≈ 14.3 µM); MIC Streptococcus pneumoniae (GC 4565) (Streptococcus sp.; [12]): 32 µg/mL (≈ 28.6 µM); MIC Streptococcus pyogenes (GC 4563) (Streptococcus sp.; [13]): 8 µg/mL (≈ 7.16 µM); MIC Streptococcus agalactiae (GC 4564) (Streptococcus sp.): 16 µg/mL (≈ 14.3 µM); MIC Streptococcus pneumoniae (ATCC 6301) (Streptococcus sp.): 32 µg/mL (≈ 28.6 µM); MIC Streptococcus pneumoniae (GC 1894) (Streptococcus sp.): 16 µg/mL (≈ 14.3 µM); MIC Streptococcus pneumoniae (GC 4565) (Streptococcus sp.): 32 µg/mL (≈ 28.6 µM); MIC Streptococcus pyogenes (GC 4563) (Streptococcus sp.): 8 µg/mL (≈ 7.16 µM); MIC Escherichia coli (ATCC 25922) (Escherichia coli): 64 µg/mL (≈ 57.3 µM); MIC Escherichia coli (GC 4559) (Escherichia coli): 64 µg/mL (≈ 57.3 µM); MIC Escherichia coli (GC 4560) (Escherichia coli): 16 µg/mL (≈ 14.3 µM)
CC(c1ccccc1)C1NC(=O)CNC(=O)C(CO)NC(=O)C(C(O)C2CNC(=N)N2C2OC(CO)C(O)C(O)C2O)NC(=O)C(C(O)C2CNC(=N)N2)NC(=O)C(Cc2ccc3oc(-c4ccc(Br)cc4)nc3c2)NC1=O (stereo not drawn) [Example 27, Cyclo[3-[2-(4-bromaphenyl)-1,3-benzoxazol-5-yl]alanyl-3-(2-iminoimidazolidin-4-yl)seryl-3-(3-hexopyranosyl-2-iminoimidazolidin-4-yl)serylserylglycyl-β-methylphenylalanyl]]	16 (≈ 13.9 µM)	32 (≈ 27.8 µM)	32 (≈ 27.8 µM)	32 (≈ 27.8 µM)	32 (≈ 27.8 µM)	64 (≈ 55.6 µM)	16 (≈ 13.9 µM)	32 (≈ 27.8 µM)	32 (≈ 27.8 µM)	32 (≈ 27.8 µM)	64 (≈ 55.6 µM)	8 (≈ 6.95 µM)	16 (≈ 13.9 µM)	32 (≈ 27.8 µM)	32 (≈ 27.8 µM)	32 (≈ 27.8 µM)	32 (≈ 27.8 µM)	64 (≈ 55.6 µM)	16 (≈ 13.9 µM)	32 (≈ 27.8 µM)	MIC Enterococcus faecalis (GC 6189) (Enterococcus sp.): 32 µg/mL (≈ 27.8 µM); MIC Enterococcus faecium (GC 2243) (Enterococcus sp.): 32 µg/mL (≈ 27.8 µM); MIC Enterococcus faecium (GC 4556) (Enterococcus sp.): 64 µg/mL (≈ 55.6 µM); MIC Enterococcus faecium (GC 4557) (Enterococcus sp.): 8 µg/mL (≈ 6.95 µM); MIC Staphylococcus aureus-SMITH (GC 4543) (Staphylococcus sp.): 8 µg/mL (≈ 6.95 µM); MIC Streptococcus agalactiae (GC 4564) (Streptococcus sp.; [9]): 32 µg/mL (≈ 27.8 µM); MIC Streptococcus pneumoniae (ATCC 6301) (Streptococcus sp.; [10]): 16 µg/mL (≈ 13.9 µM); MIC Streptococcus pneumoniae (GC 1894) (Streptococcus sp.; [11]): 32 µg/mL (≈ 27.8 µM); MIC Streptococcus pneumoniae (GC 4565) (Streptococcus sp.; [12]): 16 µg/mL (≈ 13.9 µM); MIC Streptococcus pyogenes (GC 4563) (Streptococcus sp.; [13]): 8 µg/mL (≈ 6.95 µM); MIC Streptococcus agalactiae (GC 4564) (Streptococcus sp.): 32 µg/mL (≈ 27.8 µM); MIC Streptococcus pneumoniae (ATCC 6301) (Streptococcus sp.): 16 µg/mL (≈ 13.9 µM); MIC Streptococcus pneumoniae (GC 1894) (Streptococcus sp.): 32 µg/mL (≈ 27.8 µM); MIC Streptococcus pneumoniae (GC 4565) (Streptococcus sp.): 16 µg/mL (≈ 13.9 µM); MIC Streptococcus pyogenes (GC 4563) (Streptococcus sp.): 8 µg/mL (≈ 6.95 µM); MIC Escherichia coli (ATCC 25922) (Escherichia coli): 32 µg/mL (≈ 27.8 µM); MIC Escherichia coli (GC 4559) (Escherichia coli): 32 µg/mL (≈ 27.8 µM); MIC Escherichia coli (GC 4560) (Escherichia coli): 8 µg/mL (≈ 6.95 µM)
